{
  "source": "patent US6469028B1",
  "about": "“Synthesis and use of retinoid compounds having negative hormone and/or anatgonist activities” (Allergan, Inc., priority 1995, dated 2002)",
  "key": {"[1]": {"tested_on": "TPA-induced AP-1 activity", "experiment": "Example 15: anti-AP-1 activity, Str-AP1-CAT in HeLa cells", "assay_type": "cell-based", "details": "1,25-dihydroxyvitamin D3 alone, 10^−12 to 10^−7 M", "description": "HeLa cells were transfected with 1 μg of Str-AP1-CAT using LIPOFECTAMINE according to the method described by Nagpal et al. in J. Biol. Chem. 270:923 (1995). Transfected cells were treated with AGN 193109 alone (10^−9 to 10^−7 M), 1,25-dihydroxyvitamin D3 alone (10^−12 to 10^−7 M) or 1,25-dihydroxyvitamin D3 (10^−12 to 10^−7 M) in the presence of 10^−8 M AGN 193109."}, "[2]": {"tested_on": "1,25-dihydroxyvitamin D3-dependent gene expression", "experiment": "Example 14: 1,25-dihydroxyvitamin D3 transactivation, MTV-VDRE-Luc in HeLa cells", "assay_type": "cell-based", "details": "1,25-dihydroxyvitamin D3 alone", "description": "Hela cells were transfected using the cationic liposome-mediated transfection procedure described by Feigner et al. in Proc. Natl. Acad. Sci. USA 84:7413 (1987). 5×10^4 cells were plated in 12-well multiwell plates and grown in DMEM supplemented with 10% FBS. Cells were cotransfected in serum-free medium using 2 μg/well of LIPOFECTAMINE reagent (Life Technologies, Inc.) with 0.7 μg of the reporter plasmid MTV-VDRE-Luc, containing two copies of the 1,25-dihydroxyvitamin D3 response element [NT] ID NO:4) from the mouse osteopontin gene (Ferrara et al. J. Biol. Chem. 269:2971 (1994)) ligated into the reporter plasmid ΔMTV-Luc (Heyman et al. in Cell 68:397 (1992)), and 0.3 μg of the plasmid pGEM3Z (Pharmacia, Inc.) as carrier DNA to bring the final concentration of DNA to 1.0 μg per well. After six hours of transfection, cells were fed with growth medium containing charcoal extracted FBS at a final concentration of 10%. […] Luciferase activity was measured as described above. This experimental system allowed a convenient method of monitoring and quantitating 1,25-dihydroxyvitamin D3-dependent gene expression."}, "[3]": {"experiment": "Example 4: retinoid-induced hypertriglyceridemia (serum triglycerides)", "assay_type": "in vivo, rats", "details": "group C: AGN 191659 3.7 mg/kg oral alone", "description": "Male Fischer rats (6-7 weeks old, n=5) were treated by intragastric intubation with corn oil (vehicle), AGN 191659, AGN 193109 or a combination of AGN 191659 and AGN 193109. AGN 191659 and AGN 193109 were given as fine suspensions in corn oil.\nSerum was separated from blood by low speed centrifugation. Total serum triglycerides (triglycerides plus glycerol) were measured with a standard spectrophotometric endpoint assay available commercially as a kit and adapted to a 96-well plate format. Serum triglyceride levels are expressed as the mean±SD. Means were compared statistically by one-way analysis of variance followed by Dunnett's test if significant differences were found. Differences were considered significant at P<0.05."}, "RARγ": {"target": "T1, RARγ (Homo sapiens, UniProt P13631)", "T1 sequence (P13631 1-454)": "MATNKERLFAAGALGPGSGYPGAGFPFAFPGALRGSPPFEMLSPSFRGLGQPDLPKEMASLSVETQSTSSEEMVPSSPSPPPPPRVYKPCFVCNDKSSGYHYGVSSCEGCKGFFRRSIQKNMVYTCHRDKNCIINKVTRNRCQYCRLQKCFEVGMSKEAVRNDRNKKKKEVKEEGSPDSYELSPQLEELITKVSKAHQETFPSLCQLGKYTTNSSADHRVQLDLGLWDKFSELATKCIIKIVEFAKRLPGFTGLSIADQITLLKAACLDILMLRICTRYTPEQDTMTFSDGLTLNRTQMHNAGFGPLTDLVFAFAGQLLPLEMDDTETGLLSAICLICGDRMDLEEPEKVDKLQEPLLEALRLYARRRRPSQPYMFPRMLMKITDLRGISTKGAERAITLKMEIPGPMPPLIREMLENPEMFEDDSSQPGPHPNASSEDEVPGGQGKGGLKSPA", "experiment": "[3H]-ATRA displacement assay, baculovirus expressed receptor", "assay_type": "binding", "design": "made in house; host or cells: baculovirus expression system", "details": "Table 12; relative affinity, competition of 3H-ATRA binding, Cheng-Prussof equation"}, "RAR-γ-VP-16": {"tested_on": "RAR-γ-VP-16", "experiment": "Example 12: assay for retinoid negative hormones, CV-1 cells", "assay_type": "cell-based", "details": "10^−9 to 10^−6 M, 18 hours, no agonist"}, "hairless mice": {"tested_on": "hairless mice", "experiment": "Example 1: skin irritation by topical agonist, topical antagonist", "assay_type": "in vivo", "description": "More particularly skin irritation was measured on a semiquantitative scale by the daily subjective evaluation of skin flaking and abrasions. A single number, the topical irritation score, summarizes the skin irritation induced in an animal during the course of an experiment. The topical irritation score is calculated as follows. The topical irritation score is the algebraic sum of a composite flaking score and a composite abrasion score. The composite scores range from 0-9 and 0-8 for flaking and abrasions, respectively, and take into account the maximum severity, the time of onset, and the average severity of the flaking and abrasions observed.\nThe severity of flaking is scored on a 5-point scale and the severity of abrasions is scored on a 4-point scale, with higher scores reflecting greater severity. The maximum severity component of the composite scores would be the highest daily severity score assigned to a given animal during the course of observation.\nFor the time of onset component of the composite score, a score ranging from 0 to 4 is assigned as follows:\nThe average severity component of the composite score is the sum of the daily flaking or abrasion scores divided by the number of observation days.\nTo calculate the composite flaking and abrasion scores, the average severity and time of onset scores are summed and divided by 2. The result is added to the maximal severity score. The composite flaking and abrasion scores are then summed to give the overall topical irritation score. Each animal receives a topical irritation score, and the values are expressed as the mean±SD of the individual scores of a group of animals. Values are rounded to the nearest integer.\nFemale hairless mice [Crl:SKH1-hrBR] […] Treatments are applied to the dorsal skin in a total volume of 4 ml/kg (˜0.1 ml). Mice were observed daily and scored for flaking and abrasions up to and including 3 days after the last treatment, i.e., day 8."}},
  "data": [
    {"smiles": "C=C1/C(=C\\C=C2/CCC[C@]3(C)[C@@H]([C@H](C)CCCC(C)(C)O)CC[C@@H]23)C[C@@H](O)C[C@@H]1O", "note": "[1,25-dihydroxyvitamin D3, reference compound]", "values": [
      {"measurement": "repression of TPA-stimulated activity", "setting": "[1]", "result": "repressed TPA-stimulated activity only in the 10^−8 and 10^−7 M concentration range"},
      {"measurement": "concentration required to produce a luciferase expression of approximately 2,000 rlu", "setting": "[2]", "result": "10^−8 M"}
    ]},
    {"smiles": "C/C(=C\\c1ccc(C(=O)O)s1)c1cc2c(cc1C)C(C)(C)CCC2(C)C", "note": "[AGN 191659, 5-[(E)-2-(5,6,7,8-tetrahydro-3,5,5,8,8-pentamethylnaphthalen-2-yl)propen-1-yl]-2-thiophencarboxylic acid, reference compound]", "values": [
      {"measurement": "Serum Triglycerides", "setting": "[3]", "result": "122.5 ± 27.6", "unit": "mg/dL"}
    ]},
    {"smiles": "CC1(C)CC=C(c2cccs2)c2cc(C#Cc3ccc(C(=O)O)cc3)ccc21", "note": "[Compound 34a, 4-[(5,6-dihydro-5,5-dimethyl-8-(2-thienyl)-2-naphthalenyl)ethynyl]benzoic acid]", "values": [
      {"measurement": "Kd", "setting": "RARγ", "result": 52, "unit": "nM"},
      {"measurement": "RAR-γ-VP-16 constitutive activity (negative hormone activity)", "setting": "RAR-γ-VP-16", "result": "did not repress RAR-γ-VP-16 activity"}
    ]},
    {"smiles": "Cc1ccc(C2=CCSc3ccc(C#Cc4ccc(C(=O)O)cc4)cc32)cc1", "note": "[Compound 50, 4-[2-(6-(4-(4-methylphenyl)-(2H)-1-benzothiopyranyl))ethynyl]-benzoic acid]", "values": [
      {"measurement": "Kd", "setting": "RARγ", "result": 30, "unit": "nM"},
      {"measurement": "RAR-γ-VP-16 constitutive activity (negative hormone activity)", "setting": "RAR-γ-VP-16", "result": "dose dependent repression of RAR-γ-VP-16 constitutive activity"}
    ]},
    {"smiles": "CC1(C)CC=C(c2ccccc2)c2cc(C#Cc3ccc(C(=O)O)cc3)ccc21", "note": "[Compound 60a, 4-[(5,6-dihydro-5,5-dimethyl-8-phenyl-2-naphthalenyl)ethynyl]benzoic acid]", "values": [
      {"measurement": "Topical Irritation Score", "setting": "hairless mice; group C: AGN 192869 0.06 mg/kg/d + AGN 191183 0.025 mg/kg/d topical, molar ratio 2:1", "result": "5 ± 2"},
      {"measurement": "Topical Irritation Score", "setting": "hairless mice; group D: AGN 192869 0.30 mg/kg/d + AGN 191183 0.025 mg/kg/d topical, molar ratio 10:1", "result": "2 ± 1"},
      {"measurement": "Topical Irritation Score", "setting": "hairless mice; group E: AGN 192869 1.5 mg/kg/d + AGN 191183 0.025 mg/kg/d topical, molar ratio 50:1", "result": "1 ± 0"},
      {"measurement": "Topical Irritation Score", "setting": "hairless mice; group F: AGN 192869 1.5 mg/kg/d topical alone", "result": "0 ± 0"}
    ]}
  ]
}
